Measurements taken from patent US12558356B2, “Immunophilin binding agents and uses thereof” (The Regents of the University of California, priority 2019, dated 2026).
Like-named read-outs stand apart in the source and are kept apart here.

What was measured:
p-S6 level in MCF7 cells = assay: Western blot of p-S6 level in MCF7 cells after combination treatment with Rapa/Rapalink and candidate compound (blockade score); format: cell-based; conditions: 24 h, p-S6 level as fraction of DMSO control; for Rapamycin Blockade: 10 nM Rapa + 10 μM candidate compound; for RapaLink-1 Blockade: 10 nM Rapalink + 10 μM candidate compound
FKBP12 = FKBP12 (Homo sapiens (Human), UniProt P62942); assay: FKBP12 binding assay (fluorescence polarization)
Chain of FKBP12 (P62942 whole entry): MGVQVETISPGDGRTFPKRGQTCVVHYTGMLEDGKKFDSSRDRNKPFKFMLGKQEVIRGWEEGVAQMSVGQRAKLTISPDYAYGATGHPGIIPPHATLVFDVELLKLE

| Molecule | Rapamycin Blockade (p-S6 level in MCF7 cells) | RapaLink-1 Blockade (p-S6 level in MCF7 cells) | Kd (FKBP12; read-out: Kd FKBP12) | Kd (FKBP12) |
| --- | --- | --- | --- | --- |
| CCC(C)(C)C(=O)C(=O)N1CCCC[C@H]1C(=O)O[C@H](CCc1ccc(OC)c(OC)c1)c1cccc(N)c1 [SLF, reference compound] | 3 (>70%) | 0 (<20%) |  |  |
| CCC(C)(C)C(=O)C(=O)N1CCCC[C@H]1C(=O)O[C@H](CCc1ccc(OC)c(OC)c1)c1cccc(NC(=O)C[N+](C)(C)C)c1 [ZZY01-025] | 1 (20-40%) |  | 95 nM |  |
| CCC(C)(C)C(=O)C(=O)N1CCCC[C@H]1C(=O)O[C@H](CCc1ccc(OC)c(OC)c1)c1cccc(OCCN)c1 [ZZY01-038] | 1 (20-40%) |  | 9.4 nM |  |
| CCC(C)(C)C(=O)C(=O)N1CCCC[C@H]1C(=O)O[C@H](CCc1ccc(OC)c(OC)c1)c1cccc(NC(=O)CN)c1 [ZZY01-040] | 3 (>70%) |  | 21.3 nM |  |
| CCC(C)(C)C(=O)C(=O)N1CCCC[C@H]1C(=O)O[C@H](CCc1ccc(OC)c(OC)c1)c1cccc(OCC(=O)O)c1 [ZZY01-041] | 0 (<20%) |  | 38 nM |  |
| CCC(C)(C)C(=O)C(=O)N1CCCC[C@H]1C(=O)O[C@H](CCc1ccc(OC)c(OC)c1)c1cccc(NC(=O)CN2CCOCC2)c1 [ZZY01-043] | 3 (>70%) |  | 15 nM |  |
| CCC(C)(C)C(=O)C(=O)N1CCCC[C@H]1C(=O)O[C@H](CCc1ccc(OC)c(OC)c1)c1cccc(NC(=O)CN(C)C)c1 [ZZY01-044] | 3 (>70%) |  | 12.7 nM |  |
| CCC(C)(C)C(=O)C(=O)N1CCCC[C@H]1C(=O)O[C@H](CCc1ccc(OC)c(OC)c1)c1cccc(NC(=O)[C@H](C)N)c1 [ZZY01-059] | 3 (>70%) |  |  |  |
| CCC(C)(C)C(=O)C(=O)N1CCCC[C@H]1C(=O)O[C@H](CCc1ccc(OC)c(OC)c1)c1cccc(NCC(=O)O)c1 [ZZY01-060A] | 0 (<20%) |  |  |  |
| CCC(C)(C)C(=O)C(=O)N1CCCC[C@H]1C(=O)O[C@H](CCc1ccc(OC)c(OC)c1)c1cccc(N(CC(=O)O)CC(=O)O)c1 [ZZY01-060B] | 1 (20-40%) |  | 75 nM |  |
| CCC(C)(C)C(=O)C(=O)N1CCCC[C@H]1C(=O)O[C@H](CCc1ccc(OC)c(OC)c1)c1cccc(NC(=O)CNC(=N)N)c1 [ZZY01-065] | 2 (40%-70%) |  | 37.8 nM |  |
| CCC(C)(C)C(=O)C(=O)N1CCCC[C@H]1C(=O)O[C@H](CCc1ccc(OC)c(OC)c1)c1cccc(NC(=O)CNN)c1 [ZZY01-070] | 1 (20-40%) |  | 21 nM |  |
| CCC(C)(C)C(=O)C(=O)N1CCCC[C@H]1C(=O)O[C@H](CCc1ccc(OC)c(OC)c1)c1cccc(NC(=O)CN2CCN(C)CC2)c1 [ZZY01-072] | 3 (>70%) |  | 12.5 nM |  |
| CCC(C)(C)C(=O)C(=O)N1CCCC[C@H]1C(=O)O[C@H](CCc1ccc(OC)c(OC)c1)c1cccc(NC(=O)CCC(=O)O)c1 [ZZY01-083] | 1 (20-40%) |  |  |  |
| C=CC(=O)Nc1cccc([C@@H](CCc2ccc(OC)c(OC)c2)OC(=O)[C@@H]2CCCCN2C(=O)C(=O)C(C)(C)CC)c1 [ZZY02-014] | 3 (>70%) |  | 64 nM |  |
| CCC(C)(C)C(=O)C(=O)N1CCCC[C@H]1C(=O)O[C@H](CCc1ccc(OC)c(OC)c1)c1cccc(NCCN)c1 [ZZY02-032] | 0 (<20%) |  | 36.4 nM |  |
| CCC(C)(C)C(=O)C(=O)N1CCCC[C@H]1C(=O)O[C@H](CCc1ccc(OC)c(OC)c1)c1cccc(NC(=O)CCl)c1 [ZZY02-033] | 0 (<20%) |  |  |  |

| Molecule | Rapamycin Blockade (p-S6 level in MCF7 cells) | RapaLink-1 Blockade (p-S6 level in MCF7 cells) | Kd (FKBP12; read-out: Kd FKBP12) | Kd (FKBP12) |
| --- | --- | --- | --- | --- |
| CCC(C)(C)C(=O)C(=O)N1CCCC[C@H]1C(=O)O[C@H](CCc1ccc(OC)c(OC)c1)c1cccc(NC(=O)CS)c1 [ZZY02-055] | 0 (<20%) |  | 63.8 nM |  |
| CCC(C)(C)C(=O)C(=O)N1CCCC[C@H]1C(=O)O[C@H](CCc1ccc(OC)c(OC)c1)c1cccc(NC(=O)CN=[N+]=[N-])c1 [ZZY02-096] | 2 (40%-70%) |  | 6 nM |  |
| CCC(C)(C)C(=O)C(=O)N1CCCC[C@H]1C(=O)O[C@H](CCc1ccc(OC)c(OC)c1)c1cccc(NC(=O)CCOCCOCCN)c1 [ZZY03-077] | 3 (>70%) |  | 43.7 nM |  |
| CCC(C)(C)C(=O)C(=O)N1CCCC[C@H]1C(=O)O[C@H](CCc1ccc(OC)c(OC)c1)c1cccc(NC(=O)Cc2ccccn2)c1 [ZZY03-083] | 3 (>70%) | 0 (<20%) | 31.1 nM |  |
| CCC(C)(C)C(=O)C(=O)N1CCCC[C@H]1C(=O)O[C@H](CCc1ccc(OC)c(OC)c1)c1cccc(NC(=O)CCOCCN)c1 [ZZY03-084] | 2 (40%-70%) |  | 18.6 nM |  |
| CCC(C)(C)C(=O)C(=O)N1CCCC[C@H]1C(=O)O[C@H](CCc1ccc(OC)c(OC)c1)c1cccc(NC(=O)CNc2ccccn2)c1 [ZZY03-091] | 2 (40%-70%) |  | 37.3 nM |  |
| CO[C@H]1C/C(C)=C/[C@@H](CCCSCCN)C(=O)C[C@H](O)[C@@H](C)[C@@H](/C(C)=C/[C@@H]2CC[C@@H](O)[C@H](OC)C2)OC(=O)[C@@H]2CCCCN2C(=O)C(=O)[C@]2(O)O[C@H]([C@@H](OC)C1)[C@@H](OC)C[C@H]2C [ZZY05-011] | 3 (>70%) | 3 (>70%) |  | 0.69 nM |
| CO[C@H]1C/C(C)=C/[C@@H](C/C=C/C(=O)O)C(=O)C[C@H](O)[C@@H](C)[C@@H](/C(C)=C/[C@@H]2CC[C@@H](O)[C@H](OC)C2)OC(=O)[C@@H]2CCCCN2C(=O)C(=O)[C@]2(O)O[C@H]([C@@H](OC)C1)[C@@H](OC)C[C@H]2C [ZZY05-012] | 0 (<20%) | 0 (<20%) |  | 0.39 nM |
| CO[C@H]1C/C(C)=C/[C@@H](CCCSCCN(C)C)C(=O)C[C@H](O)[C@@H](C)[C@@H](/C(C)=C/[C@@H]2CC[C@@H](O)[C@H](OC)C2)OC(=O)[C@@H]2CCCCN2C(=O)C(=O)[C@]2(O)O[C@H]([C@@H](OC)C1)[C@@H](OC)C[C@H]2C [ZZY05-013] | 3 (>70%) | 3 (>70%) |  | 1.36 nM |
| CO[C@H]1C/C(C)=C/[C@@H](CCCC(=O)O)C(=O)C[C@H](O)[C@@H](C)[C@@H](/C(C)=C/[C@@H]2CC[C@@H](O)[C@H](OC)C2)OC(=O)[C@@H]2CCCCN2C(=O)C(=O)[C@]2(O)O[C@H]([C@@H](OC)C1)[C@@H](OC)C[C@H]2C [ZZY05-020] | 2 (40%-70%) | 0 (<20%) | 1.49 nM |  |
| CO[C@H]1C/C(C)=C/[C@@H](CCCSC[C@H](N)C(=O)O)C(=O)C[C@H](O)[C@@H](C)[C@@H](/C(C)=C/[C@@H]2CC[C@@H](O)[C@H](OC)C2)OC(=O)[C@@H]2CCCCN2C(=O)C(=O)[C@]2(O)O[C@H]([C@@H](OC)C1)[C@@H](OC)C[C@H]2C [ZZY05-037] |  | 1 (20-40%) |  | 8.7 nM |
| CO[C@H]1C/C(C)=C/[C@@H](C/C=C/c2ccncc2)C(=O)C[C@H](O)[C@@H](C)[C@@H](/C(C)=C/[C@@H]2CC[C@@H](O)[C@H](OC)C2)OC(=O)[C@@H]2CCCCN2C(=O)C(=O)[C@]2(O)O[C@H]([C@@H](OC)C1)[C@@H](OC)C[C@H]2C [ZZY05-050] |  | 3 (>70%) |  | 3.6 nM |
| CO[C@H]1C/C(C)=C/[C@@H](C/C=C/c2cccc[n+]2[O-])C(=O)C[C@H](O)[C@@H](C)[C@@H](/C(C)=C/[C@@H]2CC[C@@H](O)[C@H](OC)C2)OC(=O)[C@@H]2CCCCN2C(=O)C(=O)[C@]2(O)O[C@H]([C@@H](OC)C1)[C@@H](OC)C[C@H]2C [ZZY05-060] |  | 1 (20-40%) | 0.62 nM |  |
| CO[C@H]1C/C(C)=C/[C@@H](C/C=C/c2cc[n+]([O-])cc2)C(=O)C[C@H](O)[C@@H](C)[C@@H](/C(C)=C/[C@@H]2CC[C@@H](O)[C@H](OC)C2)OC(=O)[C@@H]2CCCCN2C(=O)C(=O)[C@]2(O)O[C@H]([C@@H](OC)C1)[C@@H](OC)C[C@H]2C [ZZY05-061] |  | 0 (<20%) | 0.21 nM |  |
| CO[C@H]1C/C(C)=C/[C@@H](CCCC(=O)Nc2ccccn2)C(=O)C[C@H](O)[C@@H](C)[C@@H](/C(C)=C/[C@@H]2CC[C@@H](O)[C@H](OC)C2)OC(=O)[C@@H]2CCCCN2C(=O)C(=O)[C@]2(O)O[C@H]([C@@H](OC)C1)[C@@H](OC)C[C@H]2C [ZZY05-064] |  | 3 (>70%) | 0.2 nM |  |
| CO[C@H]1C/C(C)=C/[C@@H](CCCc2cc[n+]([O-])cc2)C(=O)C[C@H](O)[C@@H](C)[C@@H](/C(C)=C/[C@@H]2CC[C@@H](O)[C@H](OC)C2)OC(=O)[C@@H]2CCCCN2C(=O)C(=O)[C@]2(O)O[C@H]([C@@H](OC)C1)[C@@H](OC)C[C@H]2C [ZZY05-086] |  | 3 (>70%) |  | 1.6 nM |
| tacrolimus [FK506, reference compound] | 3 (>70%) | 3 (>70%) |  |  |
